One assay relates to A. baumannii DSM30011. Nature of the assay: Minimal inhibitory concentration (EUCAST), with or without 660 nm irradiation. The class given is cell-based, Acinetobacter baumannii. The settings on record: for MIC: Acinetobacter baumannii, DSM30011, light or radiation study, 18 h, read-out: MIC. The protocol: (§1) Acinetobacter baumannii DSM30011, Bacillus subtilis 168, Pseudomonas aeruginosa PA14, P. aeruginosa PAO1, Staphylococcus aureus Mu50, S. aureus Newman and S. aureus USA300 were all grown in MHB-CA at 37°C with an agitation of 180 rpm. Candida albicans SC5314 was grown in yeast extract peptone dextrose broth at 35°C with an agitation of 180 rpm.
(§2) Minimal inhibitory concentrations (MICs) for selected bacteria were investigated according to the EUCAST guidelines. Serial dilutions of the compounds, photosensitizers and aminoglycosides were made in MHB-CA in 384-well plates. Stationary-phase cells were diluted in MHB-CA to have a final concentration of 5.5 × 10^5 CFU/mL. Samples were incubated in the dark for 20 minutes at 37°C and either irradiated at 660 nm for 30 minutes with a LED device or kept in the dark. Irradiated samples received a total of 168 mJ/mm^2. Plates were then incubated at 37°C for 18 hours and MICs were evaluated visually. Triplicates were done and the synergy, or fractional inhibitory concentration (FIC), was calculated according to Doern et al., 2014: FIC = (MIC of AB)/(MIC of A) + (MIC of AB)/(MIC of B) [formula]

The subject of the next assay is B. subtilis 168. The description is as above. Particulars: read-out: MIC. In kind it is cell-based, Bacillus subtilis. The protocol:
as §1, §2

A further assay deals with C. albicans SC5314. Nature of the assay: Minimal inhibitory concentration, with or without 660 nm irradiation. In kind it is cell-based. Particulars: Candida albicans, SC5314, light or radiation study, 18 h, read-out: MIC. The protocol: as §1, §2
Another assay deals with E. coli KanR. The experiment in a line: Minimal inhibitory concentration (EUCAST), with or without 660 nm irradiation. The class given is cell-based. The method, then:
as §2

The next assay has as its system E. coli pET-29. The assay is described as above. The class given is cell-based. The method, then:
as §2

The subject of another assay is K. pneumoniae LM21. The assay is described as above. The settings on record: read-out: MIC. In kind it is cell-based. The protocol:
as §2

For the next assay, the system named is P. aeruginosa PA14. The experiment in a line: Antibacterial photodynamic therapy on planktonic cells (CFU count). In kind it is cell-based. The settings on record: Pseudomonas aeruginosa, PA14, light or radiation study, 0.5 h, irradiated, 5 J/mm^2 (Figure 5a), read-out: Survival drop. The method, then:
as §1
(§3) Cells were brought to stationary phase by incubating them in MHB-CA for at least 18 hours at 37°C with 180 rpm and diluted to an optical density of 1.0 just before the experiment. Cells were incubated for 20 minutes with either the compounds, photosensitizers alone, or aminoglycosides alone. Unless stated otherwise, a concentration of 10 µM was used for all experiments and samples were irradiated for 30 minutes at 660 nm with the Solis-660C lamp from ThorLabs, receiving a total of 5 J/mm^2. After illumination, cells were washed with phosphate-buffered saline (PBS) 1X, serially diluted and plated on Mueller-Hinton agar. The next day, colony forming units (CFUs) were counted.

A further assay relates to P. aeruginosa PAO1. The description is as above. In kind it is cell-based. The settings on record: Pseudomonas aeruginosa, PAO1, light or radiation study, 0.5 h, 10 µM, irradiated, 5 J/mm^2 (Figure 5c), read-out: Survival drop. The protocol: as §1, §3
In assay [1] the test system is S. aureus Newman persister cells. The experiment in a line: Antibacterial photodynamic therapy on persister cells. The class given is cell-based, Staphylococcus aureus. Particulars: persister cells (24 hours, 1 mM neomycin); irradiated, 5 J/mm^2 (Figure 7a). The method, then:
Persister plateau and AG concentration varied from one species to another. In S. aureus USA300, a stable plateau was obtained following 6 hours of incubation with 2 mM of neomycin. […] This control is crucial to make sure that a persister state has been achieved. […] As there are no significant differences between irradiated and non-irradiated samples, however, the production of singlet oxygen may not be the factor leading to cell death. In S. aureus Newman, cells were treated for 24 hours with 1 mM of neomycin. […] Although this synergy does exist, like in S. aureus USA300, there is no significant difference in survival for irradiated and non-irradiated samples, except for Ce6.

The subject of assay [2] is A. baumannii DSM30011 persister cells. The description is as above. In kind it is cell-based, Acinetobacter baumannii. The settings on record: persister cells (200 µM neomycin, 24 hours); aPDT, irradiated, 5 J/mm^2. The protocol:
Persister cells were obtained after incubation with 200 µM of neomycin for 24 hours.

For assay [3], the system named is P. aeruginosa PA14 persister cells. Described as above. The class given is cell-based, Pseudomonas aeruginosa. The settings on record: persister cells (1 mM tobramycin, 24 hours); aPDT, 5 J/mm^2. The protocol: In P. aeruginosa PA14, persister cells were obtained by treating with 1 mM of tobramycin for 24 hours. The effect of aPDT was not as impactful (Figures 9a, 9b), but there was a slight drop of 1.6 and 1.1 log10 CFU/mL for Neo-Ce6 and Tobra-Ce6, respectively.

Where [4] appears, read: with (+) irradiation, 660 nm 30 minutes, 168 mJ/mm^2.

Each structure is given as a SMILES string. Like-named read-outs stand apart in the source and are kept apart here. A value given as a limit tells only on which side of the number the result lay.

In the case of `C=Cc1c(C)c2cc3nc(c(CC(=O)O)c4[nH]c(cc5nc(cc1[nH]2)C(C)=C5CC)c(C)c4C(=O)O)[C@@H](CCC(=O)O)[C@@H]3C` [Ce6, chlorin e6], the MIC in the assay with A. baumannii DSM30011 (setting [4]) is above 64 µM; in the assay on A. baumannii DSM30011 (without (-) irradiation) it was above 64 µM; in the assay on B. subtilis 168 (Bacillus subtilis, 168, light or radiation study, 18 h, without (-) irradiation), above 64 µM; with B. subtilis 168 (setting [4]), above 64 µM; in the assay with C. albicans SC5314 (setting [4]), 32 µM; in the assay on C. albicans SC5314 (without (-) irradiation), above 64 µM. Besides, the MIC is above 64 µM in the assay on E. coli KanR (Escherichia coli, light or radiation study, 18 h); above 64 µM in the assay on E. coli KanR (setting [4]); above 64 µM in the assay with E. coli pET-29 (Escherichia coli, PET29, light or radiation study, 18 h, without (-) irradiation); above 64 µM in the assay on E. coli pET-29 (setting [4]); above 64 µM in the assay on K. pneumoniae LM21 (Klebsiella pneumoniae, LM21, light or radiation study, 18 h, without (-) irradiation); above 64 µM in the assay on K. pneumoniae LM21 (setting [4]).
Consider `C=Cc1c(C)c2cc3nc(c(CC(=O)O)c4[nH]c(cc5nc(cc1[nH]2)C(C)=C5CC)c(C)c4C(=O)O)[C@@H](CCC(=O)NC[C@H]1O[C@H](O[C@@H]2[C@@H](O)[C@H](O[C@H]4O[C@H](CN)[C@@H](O)C[C@H]4N)[C@@H](N)C[C@H]2N)[C@H](O)[C@@H](N)[C@@H]1O)[C@@H]3C` [Tobra-Ce6], for which the MIC is 2 to 4 µM in the assay on A. baumannii DSM30011 (setting [4]) and above 16 µM in the assay on A. baumannii DSM30011 (without (-) irradiation). For the same compound, the Synergy result with A. baumannii DSM30011 (conjugate with irradiation, from FIC) is reported as “+”. Besides, the log reduction at 10 µM in the assay on P. aeruginosa PA14 worked out at 2.6; in the assay on P. aeruginosa PAO1, 3.5. In addition, the “persister cell survival (in words)” value in [1] is on record as “significantly lower than in cells treated with Ce6 alone”. Also, the figures for the drop in assay [2] and in assay [3] were 1.8 log10 CFU/mL and 1.1 log10 CFU/mL, respectively.

As a reminder, the MIC is the lowest concentration that inhibits growth of the organism.

These data come from patent EP4389827A1, “AMINOGLYCOSIDE-LINKED PHOTOSENSITIZERS” (Centre National de la Recherche Scientifique, priority 2022, dated 2024).
